Laboratory results reported in patent US20250255867A1 (Kadmon Corporation, LLC, priority 2022, published 2025).

Experiments:
patients with cGVHD [1] = experiment: Example 1 phase IIa dose-finding study: cGVHD response per 2014 NIH Consensus Criteria (ORR, BOR, DOR, TTR, organ response); type: in vivo, human; conditions: for DOR Median (95% CI): responder population
Experimental: Eligible patients were allogeneic bone marrow transplant or allogeneic hematopoietic cell transplant (alloHCT) recipients of age ≥18 years with persistent cGVHD manifestations after having received one to three prior systemic lines of therapy and who were receiving corticosteroid treatment with or without a calcineurin inhibitor and/or concurrent extracorporeal photopheresis.
(FIG. 1) Before enrollment of the subsequent cohort, safety data in each previous cohort were analyzed after eight patients reached two months of treatment to assure that there was no safety signal. […] No safety concerns were identified, allowing for planned dose escalation.
Progression was defined per the 2014 NIH cGVHD Consensus Criteria. Long-term follow-up was conducted every 8 weeks until study closeout. […] Screening was conducted within 28 days of the first study dose. Response was initially assessed after two cycles; however, this was amended to evaluate response on day 1 of each cycle, starting at cycle 2 day 1.
(§1) All responses were assessed by the investigators.
Percentage of Participants With Overall Response (OR): OR was defined as the percentage of participants with complete response (CR) or partial response (PR). The OR determination of chronic graft versus host disease (cGVHD) was based on cGVHD response assessment performed by clinicians as per the 2014 National Institutes of Health (NIH) Consensus Development Project for Clinical Trials in cGVHD criteria. CR was defined as the resolution of all manifestations in each organ or site. PR was defined as the improvement in at least 1 organ or site without progression in any other organ or site; and cGVHD progression was defined as the clinically meaningful worsening in 1 or more organs regardless of improvement in other organs.
Duration of Response (DOR). The DOR was defined as the time (in weeks) from first documentation of response to the time of first documentation of deterioration from best response (e.g., CR to PR, or PR to […]). LOR included the response status of unchanged (LOR-U), mixed (LOR-M), or progression (LOR-P). […] Kaplan-Meier was used for the analysis.
Best Overall Response (BOR). BOR was defined as the participants with either a CR or PR or lack of response (LOR), where LOR included the response status of unchanged (LOR-U), mixed (LOR-M), or progression (LOR-P). BOR was assessed per the 2014 NIH Consensus Development Project for Clinical Trials in cGVHD criteria. […] Analysis was performed on mITT population.
Best Response in Each Individual Organ. Best response was defined as the percentage of participants with CR or PR. Response was assessed per the 2014 NIH Consensus Development Project for Clinical Trials in cGVHD criteria; CR was defined as the resolution of all manifestations in each organ or site; PR was defined as the improvement in at least 1 organ or site without progression in any other organ or site. Organ response assessment was performed on 9 individual organs: skin, eyes, mouth, esophagus, upper GI, lower GI, liver, lungs, and joints and fascia. […] Analysis was performed on mITT population. Here, ‘number analyzed’=participants with available data for each specified category.

patients with cGVHD [2] = experiment: Example 1: Lee cGVHD Symptom Scale (LSS); type: in vivo, human
Experimental: as §1
QOL assessment. […] Thirty-five percent of all patients (37% of responders and 32% of nonresponders) reported a clinically meaningful improvement in LSS score on consecutive assessments.
Change From Baseline in Overall Score on Lee cGvHD Symptom Scale at Specified Time Points. Lee cGVHD symptom scale, a patient-reported symptom scale used to measure symptom burden and has 7 subscales (Skin, Eyes and Mouth, Breathing, Eating and Digestion, Muscles and Joints, Energy, and Mental and Emotional) with ratings as follows: 0—Not at all, 1—Slightly, 2—Moderately, 3—Quite a bit, 4—Extremely, with lower values representing better outcome. Score for each subscale was normalized to a score ranged from 0 to 100, where higher score-worse symptoms. An overall score was calculated as average of these 7 subscales. EOT visit was performed within 3 days after the participant's last dose of study drug. Baseline value was defined as valid and last non-missing value obtained within 28 days prior to participant receiving first study medication. […] Analysis was performed on mITT population. Here, ‘number analyzed’=participants with available data for each specified category. Here, ‘0’ in the number analyzed field signifies that none of the participants were available for the analysis at the specified time points.

[3] = Cohort 1 200 mg QD, 17 analyzed
[4] = Cohort 2 200 mg BID, 16 analyzed
[5] = Cohort 3 400 mg QD, 21 analyzed

In the case of `CC(C)NC(=O)COc1cccc(-c2nc(Nc3ccc4[nH]ncc4c3)c3ccccc3n2)c1` [Belumosudil, 2-{3-[4-(1H-indazol-5-ylamino)-2-quinazolinyl]phenoxy}-N-(propan-2-yl) acetamide], the “Best response (CR or PR) in skin, percentage of participants” value (patients with cGVHD [1]; Cohort 1 200 mg QD) is reported as “(23%)”, the “Best response in esophagus, percentage of participants” value (patients with cGVHD [1]; Cohort 1 200 mg QD) is reported as “(50%)” and the “Best response in joints and fascia, percentage of participants” value (patients with cGVHD [1]; Cohort 1 200 mg QD) is reported as “(55%)”. The “ORR, % (95% CI)” value (patients with cGVHD [1]; Cohort 1 200 mg QD) was 65%, the “ORR, refractory to previous LOT” value (patients with cGVHD [1]; Cohort 1 200 mg QD) was 7/11 (64, 31 to % and the “ORR, severe cGVHD” value (patients with cGVHD [1]; Cohort 1 200 mg QD) was 8/12 (67, 35 to %. The “ORR, ≤2 prior LOTs subgroup” value (patients with cGVHD [1]; Cohort 1 200 mg QD) was 10/15 (67, 38 to %, the “ORR, ≤4 organs involved” value (patients with cGVHD [1]; Cohort 1 200 mg QD) was 4/8 (50, 16 to % and the “BOR: CR” value (patients with cGVHD [1]; [3]) was 0 participants. The “BOR: LOR-P” value (patients with cGVHD [1]; [3]) was 2 participants, the “BOR: LOR-U” value (patients with cGVHD [1]; [3]) was 2 participants and the “BOR: PR” value (patients with cGVHD [1]; [3]) was 11 participants. For the same compound, the “ORR, % (95% CI)” value (patients with cGVHD [1]; Cohort 1 200 mg QD, listed as KD025) was 65 (38 to 86) %, the “DOR Median (95% CI)” value (patients with cGVHD [1]; Cohort 1 200 mg QD) was 40 (8-na* %) weeks and the “Best response (CR or PR) in skin, percentage of participants” value (patients with cGVHD [1]; Cohort 2 200 mg BID) was “(17%)”. The “Best response in liver, percentage of participants” value (patients with cGVHD [1]; Cohort 2 200 mg BID) was “(50%)”, the “ORR, % (95% CI)” value (patients with cGVHD [1]; Cohort 2 200 mg BID) was 69% and the “ORR, refractory to previous LOT” value (patients with cGVHD [1]; Cohort 2 200 mg BID) was 6/9 (67, 30 to %. For the same compound, the “ORR, severe cGVHD” value (patients with cGVHD [1]; Cohort 2 200 mg BID) was 9/14 (64, 35 to %, the “ORR, ≤2 prior LOTs subgroup” value (patients with cGVHD [1]; Cohort 2 200 mg BID) was 5/8 (63, 25 to % and the “ORR, ≤4 organs involved” value (patients with cGVHD [1]; Cohort 2 200 mg BID) was 8/10 (80, 44 to %. For the same compound, the “BOR: CR” value (patients with cGVHD [1]; [4]) was 0 participants, the “BOR: LOR-P” value (patients with cGVHD [1]; [4]) was 1 participants and the “BOR: LOR-U” value (patients with cGVHD [1]; [4]) was 3 participants. For the same compound, the “BOR: PR” value (patients with cGVHD [1]; [4]) was 11 participants, the “ORR, % (95% CI)” value (patients with cGVHD [1]; Cohort 2 200 mg BID, listed as KD025) was 69 (41 to 89) % and the “DOR Median (95% CI)” value (patients with cGVHD [1]; Cohort 2 200 mg BID) was 11 (2-35%) weeks. The “ORR, % (95% CI)” value (patients with cGVHD [1]; Cohort 3 400 mg QD) was 57%, the “ORR, refractory to previous LOT” value (patients with cGVHD [1]; Cohort 3 400 mg QD) was 9/15 (60, 32 to % and the “ORR, severe cGVHD” value (patients with cGVHD [1]; Cohort 3 400 mg QD) was 8/16 (50, 25 to %. For the same compound, the “ORR, ≤2 prior LOTs subgroup” value (patients with cGVHD [1]; Cohort 3 400 mg QD) was 8/12 (67, 35 to %, the “ORR, ≤4 organs involved” value (patients with cGVHD [1]; Cohort 3 400 mg QD) was 7/9 (78, 40 to % and the “BOR: CR” value (patients with cGVHD [1]; [5]) was 0 participants. The “BOR: LOR-M” value (patients with cGVHD [1]; [5]) was 0 participants, the “BOR: LOR-P” value (patients with cGVHD [1]; [5]) was 1 participants and the “BOR: LOR-U” value (patients with cGVHD [1]; [5]) was 4 participants. For the same compound, the “BOR: PR” value (patients with cGVHD [1]; [5]) was 12 participants, the “ORR, refractory to previous LOT” value (patients with cGVHD [1]; Total) was 63% and the “ORR, severe cGVHD” value (patients with cGVHD [1]; Total) was 60%. For the same compound, the “ORR, ≤2 prior LOTs subgroup” value (patients with cGVHD [1]; Total) was 66%, the “ORR, ≤4 organs involved” value (patients with cGVHD [1]; Total) was 70% and the “ORR, % (95% CI)” value (patients with cGVHD [1]; Total N=54, listed as KD025) was 65 (51 to 77) %. The “ORR, refractory to previous LOT” value (patients with cGVHD [1]; Total, listed as KD025) was 22/35 (63, 45 to %, the “ORR, severe cGVHD” value (patients with cGVHD [1]; Total, listed as KD025) was 25/42 (60, 43 to % and the “ORR, ≤2 prior LOTs subgroup” value (patients with cGVHD [1]; Total, listed as KD025) was 23/35 (66, 48 to %. For the same compound, the “ORR, ≤4 organs involved” value (patients with cGVHD [1]; Total, listed as KD025) was 19/27 (70, 50 to %, the “ORR among patients with nonsevere cGVHD” value (patients with cGVHD [1]; pooled cohorts) was 83% and the “Clinically significant improvement (LSS), nonresponder” value (patients with cGVHD [2]; Cohort 1 200 mg QD) was 1/6 (17, 0.4 to %. For the same compound, the “Clinically significant improvement (LSS), responder” value (patients with cGVHD [2]; Cohort 1 200 mg QD) was 8/11 (73, 39 to %, the “Clinically significant improvement (LSS), overall” value (patients with cGVHD [2]; Cohort 1 200 mg QD, decrease ≥7 points) was 9 (53, 28 to 77) % and the “Clinically significant improvement (LSS), nonresponder” value (patients with cGVHD [2]; Cohort 2 200 mg BID) was 4/5 (80, 28 to %. For the same compound, the “Clinically significant improvement (LSS), overall” value (patients with cGVHD [2]; Cohort 2 200 mg BID) was 7 (44, 20 to 70) %, the “Clinically significant improvement (LSS), responder” value (patients with cGVHD [2]; Cohort 2 200 mg BID) was 3/11 (27, 6 to % and the “Clinically significant improvement (LSS), nonresponder” value (patients with cGVHD [2]; Cohort 3 400 mg QD) was 2/8 (25, 3 to %. The “Clinically significant improvement (LSS), overall” value (patients with cGVHD [2]; Cohort 3 400 mg QD) was 11 (52, 30 to %, the “Clinically significant improvement (LSS), responder” value (patients with cGVHD [2]; Cohort 3 400 mg QD) was 9/13 (69, 39 to % and the “Clinically significant improvement (LSS), nonresponder” value (patients with cGVHD [2]; Total) was 7/19 (37, 16 to %. For the same compound, the “Clinically significant improvement (LSS), responder” value (patients with cGVHD [2]; Total) was 20/35 (57, 39 to %, the “Clinically significant improvement (LSS), overall” value (patients with cGVHD [2]; Total N=54, listed as KD025) was 27 (50, 36 to % and the “Clinically significant improvement (LSS), overall” value (patients with cGVHD [2]; Total N=54, listed as belumosudil) was 50%.
